# Columns and labels:
# [1] = target: Tyrosine-protein kinase HCK (Homo sapiens) (UniProt P08631); assay: Inhibition of N-terminal GST-fused truncated human HCK (25 to 526 residues) expressed in baculovirus-infected Sf21 cells using Srctide as substrate at 1 uM in presence of ATP by Mobility shift assay
# [2] = target: Tyrosine-protein kinase Mer (Homo sapiens) (UniProt Q12866); assay: Inhibition of N-terminal GST-tagged human MER cytoplasmic domain (528 to 999 residues) expressed in baculovirus-infected Sf21 cells using CSKtide as substrate at 1 uM in presence of ATP by Mobility shift assay
# [3] = target: Muscle, skeletal receptor tyrosine-protein kinase (Homo sapiens) (UniProt O15146); assay: Inhibition of N-terminal GST-fused human MUSK catalytic domain (527 to 869 residues) expressed in baculovirus-infected Sf21 cells using CSKtide as substrate at 1 uM in presence of ATP by Mobility shift assay
# [4] = target: Non-receptor tyrosine-protein kinase TYK2 (Homo sapiens) (UniProt P29597); assay: Inhibition of N-terminal GST-tagged human TYK2 catalytic domain (871 to 1187 residues) expressed in baculovirus-infected Sf21 cells using Srctide as substrate at 1 uM in presence of ATP by Mobility shift assay
# [5] = target: MAP kinase-interacting serine/threonine-protein kinase 1 (Homo sapiens) (UniProt Q9BUB5); assay: Inhibition of N-terminal GST-fused full length human MNK1 (1 to 424 residues) expressed in baculovirus expression system using RS peptide as substrate at 1 uM in presence of ATP by Mobility shift assay
# Sequence of MAP kinase-interacting serine/threonine-protein kinase 1 (Homo sapiens) (Q9BUB5 whole entry, looked up, the tested form may be a part): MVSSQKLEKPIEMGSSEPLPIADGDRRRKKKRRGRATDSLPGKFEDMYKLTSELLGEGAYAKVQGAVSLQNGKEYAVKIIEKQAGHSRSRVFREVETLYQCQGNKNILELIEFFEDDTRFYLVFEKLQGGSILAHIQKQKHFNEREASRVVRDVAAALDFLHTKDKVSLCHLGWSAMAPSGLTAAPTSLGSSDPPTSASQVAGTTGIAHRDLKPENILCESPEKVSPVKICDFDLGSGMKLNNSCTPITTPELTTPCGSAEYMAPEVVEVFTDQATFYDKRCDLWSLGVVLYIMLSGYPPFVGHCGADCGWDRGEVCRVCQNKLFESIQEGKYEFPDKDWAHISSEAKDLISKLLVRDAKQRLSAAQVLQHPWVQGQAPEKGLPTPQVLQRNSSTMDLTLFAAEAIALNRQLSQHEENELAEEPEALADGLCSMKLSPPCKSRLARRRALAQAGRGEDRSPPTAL
# [6] = target: Ephrin type-A receptor 7 (Homo sapiens) (UniProt Q15375); assay: Inhibition of N-terminal GST-fused human EPHA7 cytoplasmic domain (595 to 998 residues) expressed in baculovirus-infected Sf21 cells using Blk/Lyntide as substrate at 1 uM in presence of ATP by Mobility shift assay
# Sequence of Ephrin type-A receptor 7 (Homo sapiens) (Q15375 28-998 limits assumed): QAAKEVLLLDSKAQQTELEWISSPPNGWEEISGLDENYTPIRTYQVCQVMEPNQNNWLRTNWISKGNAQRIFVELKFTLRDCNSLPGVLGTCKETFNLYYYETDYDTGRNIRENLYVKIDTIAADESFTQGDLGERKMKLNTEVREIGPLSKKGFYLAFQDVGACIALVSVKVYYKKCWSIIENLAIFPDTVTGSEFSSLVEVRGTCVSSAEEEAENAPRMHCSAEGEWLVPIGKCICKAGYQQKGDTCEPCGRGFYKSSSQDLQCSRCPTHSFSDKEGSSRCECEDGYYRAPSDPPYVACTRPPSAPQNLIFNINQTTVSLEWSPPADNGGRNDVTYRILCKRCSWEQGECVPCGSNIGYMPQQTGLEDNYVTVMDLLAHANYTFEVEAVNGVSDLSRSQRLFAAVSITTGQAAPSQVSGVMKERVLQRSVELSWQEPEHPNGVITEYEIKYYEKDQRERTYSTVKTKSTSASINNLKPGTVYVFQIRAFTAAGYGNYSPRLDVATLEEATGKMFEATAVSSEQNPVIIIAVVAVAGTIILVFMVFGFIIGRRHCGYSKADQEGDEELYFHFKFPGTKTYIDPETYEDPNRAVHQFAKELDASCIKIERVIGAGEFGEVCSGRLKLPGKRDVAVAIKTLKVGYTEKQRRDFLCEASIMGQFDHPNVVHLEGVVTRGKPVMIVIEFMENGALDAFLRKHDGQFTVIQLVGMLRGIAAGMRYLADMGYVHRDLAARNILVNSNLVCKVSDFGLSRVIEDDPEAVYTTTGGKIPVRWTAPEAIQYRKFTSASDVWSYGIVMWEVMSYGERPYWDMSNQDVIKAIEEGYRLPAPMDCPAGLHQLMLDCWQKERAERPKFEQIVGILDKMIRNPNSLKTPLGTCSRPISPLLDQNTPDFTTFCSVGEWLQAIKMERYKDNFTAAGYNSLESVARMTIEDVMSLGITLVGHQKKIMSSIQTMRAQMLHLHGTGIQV
# [7] = target: Calcium/calmodulin-dependent protein kinase type II subunit gamma (Homo sapiens) (UniProt Q13555); assay: Inhibition of N-terminal GST-tagged full length human CAMK2g (1 to 518 residues) expressed in baculovirus-infected Sf21 cells using GS peptide as substrate at 1 uM in presence of ATP by Mobility shift assay
# Sequence of Calcium/calmodulin-dependent protein kinase type II subunit gamma (Homo sapiens) (Q13555 whole entry, the tested form may be a part): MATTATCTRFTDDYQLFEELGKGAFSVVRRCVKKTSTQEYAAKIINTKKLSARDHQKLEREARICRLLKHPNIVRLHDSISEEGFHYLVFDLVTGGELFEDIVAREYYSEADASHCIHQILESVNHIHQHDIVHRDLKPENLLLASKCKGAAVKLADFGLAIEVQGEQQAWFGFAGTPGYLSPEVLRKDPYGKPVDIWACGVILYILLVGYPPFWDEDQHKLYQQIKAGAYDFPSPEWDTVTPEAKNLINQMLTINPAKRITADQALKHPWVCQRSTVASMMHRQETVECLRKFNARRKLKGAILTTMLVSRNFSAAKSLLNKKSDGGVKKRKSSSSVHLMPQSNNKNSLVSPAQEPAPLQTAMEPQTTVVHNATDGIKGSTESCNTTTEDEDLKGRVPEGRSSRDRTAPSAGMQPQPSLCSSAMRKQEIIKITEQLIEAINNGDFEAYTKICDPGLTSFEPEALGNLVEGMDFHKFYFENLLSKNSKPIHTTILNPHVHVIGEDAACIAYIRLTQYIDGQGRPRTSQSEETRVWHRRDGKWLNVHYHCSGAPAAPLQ
# [8] = target: Tyrosine-protein kinase Blk (Homo sapiens) (UniProt P51451); assay: Inhibition of N-terminal GST-fused full length human BLK (1 to 505 residues) expressed in baculovirus-infected Sf21 cells using Srctide as substrate at 1 uM in presence of ATP by Mobility shift assay
# Sequence of Tyrosine-protein kinase Blk (Homo sapiens) (P51451 2-505 limits assumed): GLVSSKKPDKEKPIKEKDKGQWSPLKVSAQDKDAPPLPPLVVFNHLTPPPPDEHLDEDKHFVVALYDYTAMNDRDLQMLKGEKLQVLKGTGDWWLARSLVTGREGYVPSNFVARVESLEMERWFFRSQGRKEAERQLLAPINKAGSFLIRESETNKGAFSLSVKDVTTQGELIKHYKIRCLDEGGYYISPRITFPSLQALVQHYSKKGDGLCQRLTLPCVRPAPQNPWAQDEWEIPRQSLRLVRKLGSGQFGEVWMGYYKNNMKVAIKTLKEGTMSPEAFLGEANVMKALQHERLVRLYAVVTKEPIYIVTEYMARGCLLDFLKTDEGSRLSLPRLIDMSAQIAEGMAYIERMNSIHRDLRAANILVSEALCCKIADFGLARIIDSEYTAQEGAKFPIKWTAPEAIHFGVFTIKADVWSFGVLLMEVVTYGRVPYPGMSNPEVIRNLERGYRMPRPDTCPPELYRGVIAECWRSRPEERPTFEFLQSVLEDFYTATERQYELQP
# [9] = target: Inhibitor of nuclear factor kappa-B kinase subunit beta (Homo sapiens) (UniProt O14920); assay: Inhibition of N-terminal His-tagged truncated human IKK-beta (1 to 662 residues) expressed in baculovirus expression system using Modified IkBalpha-derived peptide as substrate at 1 uM in presence of ATP by Mobility shift assay
# [10] = target: Calcium/calmodulin-dependent protein kinase type II subunit delta (Homo sapiens) (UniProt Q13557); assay: Inhibition of N-terminal GST-tagged full length human CAMK2d (1 to 478 residues) expressed in baculovirus-infected Sf21 cells using GS peptide as substrate at 1 uM in presence of ATP by Mobility shift assay
# [11] = target: Serine/threonine-protein kinase 4 (Homo sapiens) (UniProt Q13043); assay: Inhibition of N-terminal GST-fused full length human MST1 (1 to 487 residues) expressed in baculovirus expression system using IRS1 as substrate at 1 uM in presence of ATP by Mobility shift assay
# [12] = target: Fibroblast growth factor receptor 1 (Homo sapiens) (UniProt P11362); assay: Inhibition of N-terminal GST-fused human FGFR1 cytoplasmic domain (398 to 822 residues ) expressed in baculovirus-infected Sf21 cells using CSKtide as substrate at 1 uM in presence of ATP by Mobility shift assay
# [13] = target: Hepatocyte growth factor receptor (Homo sapiens) (UniProt P08581); assay: Inhibition of N-terminal GST-tagged human MET cytoplasmic domain (956 to 1390 residues ) expressed in baculovirus-infected Sf21 cells using Srctide as substrate at 1 uM in presence of ATP by Mobility shift assay
# [14] = target: cAMP-dependent protein kinase catalytic subunit gamma (Homo sapiens) (UniProt P22612); assay: Inhibition of N-terminal GST-tagged full length human PKACgamma (1 to 351 residues) expressed in baculovirus expression system using Kemptide as substrate at 1 uM in presence of ATP by Mobility shift assay
# Sequence of cAMP-dependent protein kinase catalytic subunit gamma (Homo sapiens) (P22612 2-351 limits assumed): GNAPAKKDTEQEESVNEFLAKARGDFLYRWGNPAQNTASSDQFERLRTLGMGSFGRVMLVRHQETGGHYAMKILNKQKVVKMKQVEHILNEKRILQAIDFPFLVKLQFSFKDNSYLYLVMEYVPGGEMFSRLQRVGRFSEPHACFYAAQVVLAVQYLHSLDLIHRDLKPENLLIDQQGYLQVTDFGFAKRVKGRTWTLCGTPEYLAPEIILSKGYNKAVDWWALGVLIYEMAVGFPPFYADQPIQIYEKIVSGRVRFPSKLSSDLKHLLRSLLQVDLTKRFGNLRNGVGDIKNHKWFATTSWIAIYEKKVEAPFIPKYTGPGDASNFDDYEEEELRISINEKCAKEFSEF
# [15] = target: Ephrin type-A receptor 6 (Homo sapiens) (UniProt Q9UF33); assay: Inhibition of N-terminal GST-fused human EPHA6 cytoplasmic domain (683 to 1130 residues) expressed in baculovirus-infected Sf21 cells using Blk/Lyntide as substrate at 1 uM in presence of ATP by Mobility shift assay
# [16] = target: Serine/threonine-protein kinase Nek4 (Homo sapiens) (UniProt P51957); assay: Inhibition of N-terminal GST-tagged full length human NEK4 (1 to 841 residues) expressed in baculovirus expression system using GS peptide as substrate at 1 uM in presence of ATP by Mobility shift assay
# [17] = target: Fibroblast growth factor receptor 3 (Homo sapiens) (UniProt P22607); assay: Inhibition of N-terminal GST-fused human FGFR3 cytoplasmic domain (436 to 806 residues) expressed in baculovirus-infected Sf21 cells using CSKtide as substrate at 1 uM in presence of ATP by Mobility shift assay
# Sequence of Fibroblast growth factor receptor 3 (Homo sapiens) (P22607 23-806 limits assumed): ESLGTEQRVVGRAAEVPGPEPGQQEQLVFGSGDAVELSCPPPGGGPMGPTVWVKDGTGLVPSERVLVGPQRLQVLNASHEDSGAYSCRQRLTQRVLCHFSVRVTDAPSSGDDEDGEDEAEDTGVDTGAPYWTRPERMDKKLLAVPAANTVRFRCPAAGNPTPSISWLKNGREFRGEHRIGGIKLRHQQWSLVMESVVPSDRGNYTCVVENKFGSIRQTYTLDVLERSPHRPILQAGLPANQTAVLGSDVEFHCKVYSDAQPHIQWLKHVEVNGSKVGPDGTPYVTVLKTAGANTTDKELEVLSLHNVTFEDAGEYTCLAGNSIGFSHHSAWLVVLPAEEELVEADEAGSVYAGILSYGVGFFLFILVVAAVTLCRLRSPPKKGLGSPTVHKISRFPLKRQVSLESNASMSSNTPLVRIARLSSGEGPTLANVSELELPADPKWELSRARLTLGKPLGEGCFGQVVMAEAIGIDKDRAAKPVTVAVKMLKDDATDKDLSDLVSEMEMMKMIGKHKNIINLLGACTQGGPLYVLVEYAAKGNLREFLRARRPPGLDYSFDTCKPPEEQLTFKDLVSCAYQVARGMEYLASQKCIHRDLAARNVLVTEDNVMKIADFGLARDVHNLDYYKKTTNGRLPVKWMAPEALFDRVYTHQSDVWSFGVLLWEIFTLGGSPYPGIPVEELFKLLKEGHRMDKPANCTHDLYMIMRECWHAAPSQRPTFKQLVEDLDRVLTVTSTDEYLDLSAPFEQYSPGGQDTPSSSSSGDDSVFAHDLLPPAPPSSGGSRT
# [18] = target: Dual specificity tyrosine-phosphorylation-regulated kinase 1A (Homo sapiens) (UniProt Q13627); assay: Inhibition of N-terminal GST-fused full length human DYRK1A (1 to 763 residues) expressed in baculovirus expression system using DYRKtide-F as substrate at 1 uM in presence of ATP by Mobility shift assay
# [19] = target: MAP kinase-interacting serine/threonine-protein kinase 2 (Homo sapiens) (UniProt Q9HBH9); assay: Inhibition of N-terminal GST-fused full length human MNK2 (1 to 465 residues) expressed in baculovirus expression system using RS peptide as substrate at 1 uM in presence of ATP by Mobility shift assay
# Sequence of MAP kinase-interacting serine/threonine-protein kinase 2 (Homo sapiens) (Q9HBH9 whole entry, looked up, the tested form may be a part): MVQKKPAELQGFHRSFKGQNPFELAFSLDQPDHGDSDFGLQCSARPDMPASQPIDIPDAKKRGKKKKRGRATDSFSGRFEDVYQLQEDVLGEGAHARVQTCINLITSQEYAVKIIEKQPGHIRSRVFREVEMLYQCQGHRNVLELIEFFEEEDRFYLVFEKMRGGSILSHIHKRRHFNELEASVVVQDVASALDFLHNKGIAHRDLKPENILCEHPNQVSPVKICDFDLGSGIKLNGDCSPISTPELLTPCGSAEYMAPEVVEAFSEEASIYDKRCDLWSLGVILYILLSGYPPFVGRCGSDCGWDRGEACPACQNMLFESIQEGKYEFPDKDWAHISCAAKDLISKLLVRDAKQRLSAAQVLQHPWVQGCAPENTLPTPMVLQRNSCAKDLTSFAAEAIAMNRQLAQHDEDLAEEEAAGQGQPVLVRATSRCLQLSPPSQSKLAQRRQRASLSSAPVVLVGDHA
# [20] = target: Serine/threonine-protein kinase 3 (Homo sapiens) (UniProt Q13188); assay: Inhibition of N-terminal GST-fused full length human MST2 (1 to 491 residues) expressed in baculovirus expression system using IRS1 as substrate at 1 uM in presence of ATP by Mobility shift assay
# [21] = target: Cyclin-dependent kinase 5/CDK5 activator 1 (Homo sapiens) (UniProt Q00535+Q15078); assay: Inhibition of N-terminal GST-tagged full length human CDK5 (1 to 292 residues)/N-terminal GST-tagged human p25 (99 to 307 residues) expressed in baculovirus-infected Sf21 cells using Modified Histone H1 as substrate at 1 uM in presence of ATP by Mobility shift assay
# [22] = target: Serine/threonine-protein kinase MRCK alpha (Homo sapiens) (UniProt Q5VT25); assay: Inhibition of N-terminal GST-fused truncated human MRCKalpha (1 to 574 residues) expressed in baculovirus expression system using DAPK1tide as substrate at 1 uM in presence of ATP by Mobility shift assay
# Sequence of Tyrosine-protein kinase HCK (Homo sapiens) (P08631 2-526 limits assumed): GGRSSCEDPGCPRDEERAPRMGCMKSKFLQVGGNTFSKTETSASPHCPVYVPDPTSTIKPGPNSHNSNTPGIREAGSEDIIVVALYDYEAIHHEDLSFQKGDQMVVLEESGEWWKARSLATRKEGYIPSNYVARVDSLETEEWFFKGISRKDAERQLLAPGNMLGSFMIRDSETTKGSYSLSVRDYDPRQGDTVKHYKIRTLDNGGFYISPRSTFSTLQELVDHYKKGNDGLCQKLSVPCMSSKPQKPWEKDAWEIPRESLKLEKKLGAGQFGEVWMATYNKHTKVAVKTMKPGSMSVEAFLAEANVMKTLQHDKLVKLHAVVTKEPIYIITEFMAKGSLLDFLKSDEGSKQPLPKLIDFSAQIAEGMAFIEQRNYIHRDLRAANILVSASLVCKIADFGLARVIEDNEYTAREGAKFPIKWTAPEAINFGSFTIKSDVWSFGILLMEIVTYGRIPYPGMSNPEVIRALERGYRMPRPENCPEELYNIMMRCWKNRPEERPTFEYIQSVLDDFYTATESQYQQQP
Compound,inhibition [1] [%],inhibition [2] [%],inhibition [3] [%],inhibition [4] [%],inhibition [5] [%],inhibition [6] [%],inhibition [7] [%],inhibition [8] [%],inhibition [9] [%],inhibition [10] [%],inhibition [11] [%],inhibition [12] [%],inhibition [13] [%],inhibition [14] [%],inhibition [15] [%],inhibition [16] [%],inhibition [17] [%],inhibition [18] [%],inhibition [19] [%],inhibition [20] [%],other results
Cc1cc(C)c(CNC(=O)c2cc(Br)c3c(c2C)O[C@@](C)([C@H]2CC[C@H](N(C)C)CC2)O3)c(=O)[nH]1,-2.5,-1.5,-5.1,-2.4,-0.2,-3.3,-4.8,-3.1,2.1,-1.4,-2.7,-2.9,-2.1,-1.4,-3.8,-2,-1.9,-8.2,7.2,-2.1,inhibition [21]: 5.9%; inhibition [22]: 2.7%
Cc1cc(C)c(CNC(=O)c2cc(Cl)c3c(c2C)O[C@@](C)([C@H]2CC[C@H](N(C)C)CC2)O3)c(=O)[nH]1 [VALEMETOSTAT],-4.2,-1.6,-5.5,-8.8,0.2,-1.9,-5.4,-5,-1.8,-4.5,-1.9,-4.3,-5,-2.4,0.1,-2.9,-2.3,-3.4,8.7,-1.4,inhibition [21]: -2.4%; inhibition [22]: 0.8%

# Reference: ChEMBL document CHEMBL5647694, “Novel orally bioavailable EZH1/2 dual inhibitors with greater antitumor efficacy than an EZH2 selective inhibitor” (Cancer Sci, 2017)
